In patent US6642392B1 (priority 1997, dated 2003):
Read-outs that look alike come from different tables or passages of the source.

Columns and labels:
Format in all cases: in vivo
[1] = tested on: Eiysiphe graminis f. sp. tritici; test: Test A: wheat powdery mildew, preventive spray on wheat seedlings; conditions: for Test A disease control rating (100 = 100% disease control, 0 = no disease control): wheat seedlings sprayed to run-off, inoculated the following day, rating relative to controls, unmarked compounds (standard test rate); for Test A disease control rating: wheat powdery mildew
In short: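 Preventive test: seedlings inoculated with powdery mildew spores one day after run-off spraying of a suspension. Ratings after 7 days in a 20° C growth chamber express percent disease control versus controls.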

[2] = tested on: Puccinia recondita; test: Test B: wheat leaf rust, preventive spray on wheat seedlings; conditions: for Test B disease control rating (100 = 100% disease control, 0 = no disease control): wheat seedlings sprayed to run-off, inoculated the following day, rating relative to controls, unmarked compounds (standard test rate); for Test B disease control rating: wheat leaf rust
In short: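 Preventive test: P. recondita spores were applied one day after a run-off spray of compound suspension on wheat seedlings. Plants had 24 h at 20 °C in saturated air plus 6 days in a 20 °C growth chamber. Scoring is % disease control (100 = full) relative to controls.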

[3] = tested on: Pyricularia oryzae; conditions: for Test C disease control rating (100 = 100% disease control, 0 = no disease control): rice seedlings sprayed to run-off, inoculated the following day, rating relative to controls, unmarked compounds (standard test rate); for Test C disease control rating: rice blast
[4] = tested on: Phytophthora infestans; conditions: for Test D disease control rating (100 = 100% disease control, 0 = no disease control): tomato seedlings sprayed to run-off, inoculated the following day, rating relative to controls, unmarked compounds (standard test rate); for Test D disease control rating: tomato late blight
[5] = tested on: Botrytis cinerea; test: Test E: gray mold, preventive spray on cucumber seedlings; conditions: for Test E disease control rating (100 = 100% disease control, 0 = no disease control): cucumber seedlings sprayed to run-off, inoculated the following day, rating relative to controls, unmarked compounds (standard test rate); for Test E disease control rating: gray mold on cucumber
In short: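 Preventive spray on cucumber seedlings used a suspension (3% acetone, 250 ppm Trem 014), applied to run-off one day before inoculation with Botrytis cinerea spores. Plants were held 48 h at 20° C in saturated air, then 5 days at 20° C. Percent disease control was scored relative to untreated plants.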

[6] = 100 = 100% disease control, 0 = no control relative to controls, unmarked entries (standard test concentration)
[7] = 100 = 100% disease control, 0 = no control, unmarked entries (standard test concentration)

Row | Compound | Test A disease control rating (100 = 100% disease control, 0 = no disease control) [1] [%] | Test B disease control rating (100 = 100% disease control, 0 = no disease control) [2] [%] | Test C disease control rating (100 = 100% disease control, 0 = no disease control) [3] [%] | Test D disease control rating (100 = 100% disease control, 0 = no disease control) [4] [%] | Test E disease control rating (100 = 100% disease control, 0 = no disease control) [5] [%] | Test A disease control rating [1, 6] [%] | Test B disease control rating [2, 7] [%] | Test C disease control rating [3, 7] [%] | Test D disease control rating [4, 7] [%] | Test E disease control rating [5, 7] [%] | further results
1 | CCC1(C(=O)NC(C)C=Cc2ccccc2)C(C)C1(Cl)Cl (mixture of isomers) [compound 263] | 86 | 0 | 86 | 33 | 0 |  |  |  |  |  | 
2 | CC(COc1ccc(Br)cc1F)NC(=O)C(C#N)C(C)(C)C (mixture of isomers) [compound 38] |  |  |  |  |  | 0 | 28 | 53 | 0 | 22 | 
3 | CCC1(C(=O)NC(C)COc2c(F)cccc2C#N)C(C)C1(Cl)Cl (mixture of isomers) [compound 128] |  |  |  |  |  | 86 | 0 | 74 | 13 | 0 | 
4 | C[C@H](COc1ccccc1F)NC(=O)C(C#N)C(C)(C)C (single isomer, unassigned) [2b] |  |  |  |  |  | 0 | 0 | 100 | 0 | 0 | 
5 | CC(COc1cc(OC(F)F)ccc1C#N)NC(=O)C(C#N)C(C)C(C)(C)C (mixture of isomers) [compound 277] | 0 | 0 | 0 | 0 | 0 |  |  |  |  |  | 
6 | CCC1(C(=O)NC(C)COc2cc(C(C)(C)C)ccc2C#N)C(C)C1(Cl)Cl (centres unmarked) [compound 248] | 53 | 0 | 90 | 62 | 83 |  |  |  |  |  | 
7 | CC(COc1ccccc1)NC(=O)C(C#N)C(C)(C)C (single isomer, unassigned) [1b] |  |  |  |  |  | 34 | 11 | 74 | 0 | 0 | 
8 | CCC1(C(=O)NC(C)COc2cccc(CF)c2)C(C)C1(Cl)Cl (mixture of isomers) [compound 102] |  |  |  |  |  |  |  |  |  |  | Test A disease control rating ([1]; tested at 40 ppm): 60%; Test B disease control rating ([2]; tested at 40 ppm): 0%; Test C disease control rating ([3]; tested at 40 ppm): 0%; Test D disease control rating ([4]; tested at 40 ppm): 0%; Test E disease control rating ([5]; tested at 40 ppm): 0%
9 | CCC1(C(=O)NC(C)COc2c(Br)cc(F)cc2Br)C(C)C1(Cl)Cl (centres unmarked) [compound 250] | 0 | 0 | 52 | 0 | 85 |  |  |  |  |  | 
10 | CCC1(C(=O)NCCCn2cccc2)C(C)C1(Cl)Cl (centres unmarked) [compound 145] |  |  |  |  |  | 0 | 9 | 0 | 20 | 0 | 
11 | CCC1(C(=O)NC(C)CCn2cc(Cl)cc2C#N)C(C)C1(Cl)Cl (mixture of isomers) [compound 144] |  |  |  |  |  | 0 | 28 | 53 | 0 | 0 | 
12 | CC(COc1ccccc1Cl)NC(=O)C(C#N)C(C)(C)C (mixture of isomers) [5a] |  |  |  |  |  | 0 | 68 | 0 | 0 | 0 | 
13 | C[C@H](COc1ccc(F)c(F)c1)NC(=O)C(C#N)C(C)(C)C (single isomer, unassigned) [30b] |  |  |  |  |  | 77 | 27 | 97 | 0 | 0 | 
14 | CCC1(C(=O)NCC=Cc2ccccc2CC#N)C(C)C1(Cl)Cl (centres unmarked) [compound 161] |  |  |  |  |  |  |  |  |  |  | Test A disease control rating ([1]; tested at 40 ppm): 0%; Test B disease control rating ([2]; tested at 40 ppm): 0%; Test C disease control rating ([3]; tested at 40 ppm): 0%; Test D disease control rating ([4]; tested at 40 ppm): 0%; Test E disease control rating ([5]; tested at 40 ppm): 0%
15 | C[C@H](COc1ccccc1Br)NC(=O)C(C#N)C(C)(C)C (single isomer, unassigned) [8c] |  |  |  |  |  | 0 | 0 | 100 | 0 | 0 | 
16 | C[C@H](COc1cc(Cl)cc(Cl)c1)NC(=O)C(C#N)C(C)(C)C (single isomer, unassigned) [35b] |  |  |  |  |  | 37 | 0 | 91 | 0 | 0 | 
17 | C=CCc1cccc(C#N)c1OCC(C)NC(=O)C(C#N)C(C)C(C)(C)C (mixture of isomers) [compound 275] | 0 | 0 | 53 | 0 | 99 |  |  |  |  |  | 
18 | CCC1(C(=O)NC(C)COc2ccc(Br)cc2)C(C)C1(Cl)Cl (mixture of isomers) [86b] |  |  |  |  |  |  |  |  |  |  | Test A disease control rating ([1]; tested at 40 ppm): 52%; Test B disease control rating ([2]; tested at 40 ppm): 0%; Test C disease control rating ([3]; tested at 40 ppm): 0%; Test D disease control rating ([4]; tested at 40 ppm): 28%; Test E disease control rating ([5]; tested at 40 ppm): 0%
19 | C=CC(C)(C)C(C#N)C(=O)NC(C)COc1cc(C)ccc1F (mixture of isomers) [compound 282] | 0 | 0 | 100 | 24 | 0 |  |  |  |  |  | 
20 | C[C@H](COc1cccc(Br)c1)NC(=O)C(C#N)C(C)(C)C (single isomer, unassigned) [9b] |  |  |  |  |  | 62 | 68 | 99 | 28 | 0 | 
21 | CCC1(C(=O)NC(C)COc2cccc(Cl)c2)C(C)C1(Cl)Cl (mixture of isomers) [82b] |  |  |  |  |  | 31 | 0 | 97 | 15 | 0 | 
22 | CC(COc1cc(F)c(F)cc1C#N)NC(=O)C(C#N)C(C)C(C)(C)C (mixture of isomers) [compound 278] | 56 | 67 | 32 | 0 | 94 |  |  |  |  |  | 
